One assay relates to HSV2. Nature of the assay: Viral qPCR assay, HSV2 in Vero cells. The format is cell-based. As to conditions: Human alphaherpesvirus 2, ~72 hrs, viral genome copies by qPCR, read-out: HSV2 VERO Cell (EC50). How it is done: (§1) MRC5 cells, Vero cells, and MeWo cells were obtained from ATCC and were maintained at 37° C./5% CO2/90% relative humidity in Minimal Essential Medium with 10% fetal bovine serum, […] L-glutamine, 100 units/ml penicillin and 100 ug/ml streptomycin. Assay plates were prepared by dispensing compounds dissolved in DMSO into wells of 384 well collagen-coated plates using an ECHO acoustic dispenser. Each compound was tested in a 10-point, serial 3-fold dilution. Controls included uninfected cells and infected cells treated only with DMSO. Assays were initiated by mixing selected cells, in suspension, with virus, and dispensing 50 μl/well infected cells to pre-plated compounds. Plates were incubated at 37° C./5% CO2/90% relative humidity for ˜72 hrs to permit genomic replication, and infected cells were lysed by the addition of an equal volume of lysis buffer (10 mM Tris-HCl, pH8, 50 mM KCl, 2 mM MgCl2, 0.45% NP-40, 0.45% Tween-20, and 100 μg/ml proteinase K). […] Levels of a viral gene and of the cellular control, PPIA (Thermo Fisher Assay ID=Hs04194521_s1), were measured in separate 10 μL qPCR assays using TaqMang Gene Expression Master Mix (Applied Biosystems), and an 7900HT Fast Real-Time PCR System with 384-Well Block Module. 7-point, serial 10-fold dilutions of a plasmid standard were run on each plate to generate a standard curve, and genome copies numbers were calculated by plotting experimental Ct onto linear regression of the standard curve. […] Calculated % effects were fit using a 4-parameter algorithm, and EC50 was reported.
(§2) MRC5 cells, Vero cells, and MeWo cells were obtained from ATCC and were maintained at 37° C./5% CO2/90% relative humidity in Minimal Essential Medium with 10% fetal bovine serum, […] L-glutamine, 100 units/ml penicillin and 100 ug/ml streptomycin. […] Levels of a viral gene were measured in 10 μL qPCR assays using TaqMang Gene Expression Master Mix (Applied Biosystems), and an 7900HT Fast Real-Time PCR System with 384-Well Block Module. […]
(In general: In qPCR the cycle at which signal appears reflects the starting amount.)

Assay [1] has as its target T1, varicella zoster virus (VZV) DNA polymerase (Varicella-zoster virus, UniProt P09252).
T1 construct: made in house; host or cells: SF21 insect cells (baculovirus vector)
Nature of the assay: VZV polymerase assay. The format is biochemical. As to conditions: polymerase 0.4 nM, AlphaLISA detection. The method, then:
(§3) Human cytomegalovirus (HCMV) and varicella zoster virus (VZV) DNA polymerases were expressed via baculovirus vector in SF21 cells and purified. Heterodimeric nucleic acid substrate used in the herpesvirus polymerase reactions was generated by annealing a 59-mer template to a 17-mer digoxigenin-labeled primer. Polymerase (HCMV final concentration of 0.2 nM; VZV final concentration of 0.4 nM) was combined with an inhibitor compound or DMSO in assay buffer (10 mM HEPES, pH 7.5, 25 mM KCl, 25 mM NaCl, 5 mM MgCl2, 5% glycerol, 0.67 mg/ml bovine serum albuminutes (albuminate?), and 1 mM tris(2-carboxyethyl)phosphine), and this mixture was pre-incubated for 30 minutes at room temperature in 384-well microtiter plates. The polymerization reaction was initiated by the addition of template/primer substrate (final concentration: 1.6 nM), and dNTPs (final concentration: 24 nM dCTP, 24 nMdGTP, 16 nM dATP, 16 nM dTTP, and 0.8 nM biotin-dUTP). After 60 minutes incubation at 37° C., reactions were terminated with quench buffer (25 mM HEPES pH 7.5, 100 mM NaCl, 0.25% Tween-20, 12 mM EDTA, and 1 mg/ml bovine serum albumin). Incorporation of biotinylated UTP was detected with 2.5-5 ug/ml anti-DIG AlphaLISA acceptor beads and 5-10 ug/ml streptavidin AlphaLISA donor beads (Perkin Elmer). Compound effects were normalized to the window defined by the controls (DMSO only and pre-quenched wells), and were fit using a 4-parameter algorithm to report an IC50.
In general terms: Bead proximity is the source of the signal in Alpha formats.

In assay [2] the target is T2, Human cytomegalovirus (HCMV) DNA polymerase (Human cytomegalovirus, UniProt P08546).
T2 construct: made in house; host or cells: SF21 insect cells (baculovirus vector)
The assay is described as follows: HCMV polymerase assay. The format is biochemical. As to conditions: polymerase 0.2 nM, AlphaLISA detection; read-out: CMV (IC50). How it is done:
as §3

The next assay deals with HCMV Strain AD169. The assay is described as follows: Viral qPCR assay, CMV in MRC5 cells. The format is cell-based, Human cytomegalovirus. As to conditions: Human betaherpesvirus 5, AD169, ~72 hrs, viral genome copies by qPCR, read-out: CMV MRC5 Cell (EC50). How it is done:
as §1, §2

A further assay deals with HSV-1 Strain F. Nature of the assay: Viral qPCR assay, HSV1 in Vero cells. It counts as cell-based. As to conditions: Human alphaherpesvirus 1, ~72 hrs, viral genome copies by qPCR, read-out: HSV1 VERO Cell (EC50). The method, then:
as §1, §2

The test system of a further assay is VZV. Nature of the assay: Viral qPCR assay, VZV in MeWo cells. It counts as cell-based, varicella zoster virus. As to conditions: Human alphaherpesvirus 3, ~72 hrs, viral genome copies by qPCR, read-out: VZV MEWO Cell (IC50). The method, then:
as §1, §2

T2 sequence (P08546 whole entry): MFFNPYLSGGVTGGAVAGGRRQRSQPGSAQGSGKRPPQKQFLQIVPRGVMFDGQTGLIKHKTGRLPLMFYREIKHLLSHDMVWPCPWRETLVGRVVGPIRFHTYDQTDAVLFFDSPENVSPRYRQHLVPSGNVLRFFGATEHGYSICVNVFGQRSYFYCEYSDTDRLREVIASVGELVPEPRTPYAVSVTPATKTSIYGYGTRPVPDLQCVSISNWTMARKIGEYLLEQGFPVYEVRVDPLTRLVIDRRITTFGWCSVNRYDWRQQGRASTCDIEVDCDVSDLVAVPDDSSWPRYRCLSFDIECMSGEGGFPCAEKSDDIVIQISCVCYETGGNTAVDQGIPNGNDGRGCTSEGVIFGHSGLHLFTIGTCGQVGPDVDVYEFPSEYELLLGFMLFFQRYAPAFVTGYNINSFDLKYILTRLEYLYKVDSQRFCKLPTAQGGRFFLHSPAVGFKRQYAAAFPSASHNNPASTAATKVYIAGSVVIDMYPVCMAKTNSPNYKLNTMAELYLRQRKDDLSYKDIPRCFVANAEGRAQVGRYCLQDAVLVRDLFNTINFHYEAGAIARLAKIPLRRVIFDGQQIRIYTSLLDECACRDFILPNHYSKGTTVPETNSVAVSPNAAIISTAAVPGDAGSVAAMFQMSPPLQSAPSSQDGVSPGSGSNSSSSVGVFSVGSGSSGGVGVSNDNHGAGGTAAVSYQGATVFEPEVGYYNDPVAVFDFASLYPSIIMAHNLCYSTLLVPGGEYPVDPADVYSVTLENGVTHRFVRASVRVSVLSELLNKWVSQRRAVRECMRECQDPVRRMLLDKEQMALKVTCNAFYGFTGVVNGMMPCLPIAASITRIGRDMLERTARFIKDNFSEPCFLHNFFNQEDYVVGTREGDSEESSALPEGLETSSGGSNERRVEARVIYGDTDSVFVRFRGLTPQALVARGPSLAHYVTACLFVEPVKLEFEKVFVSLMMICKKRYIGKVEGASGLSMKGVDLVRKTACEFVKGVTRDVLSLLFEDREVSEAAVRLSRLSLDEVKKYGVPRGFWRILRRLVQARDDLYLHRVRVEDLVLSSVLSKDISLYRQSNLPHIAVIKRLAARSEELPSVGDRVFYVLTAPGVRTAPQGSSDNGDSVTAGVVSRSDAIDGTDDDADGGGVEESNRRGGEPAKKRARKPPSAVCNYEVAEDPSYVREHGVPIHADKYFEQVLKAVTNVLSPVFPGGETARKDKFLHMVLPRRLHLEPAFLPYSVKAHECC
T1 sequence (P09252 whole entry): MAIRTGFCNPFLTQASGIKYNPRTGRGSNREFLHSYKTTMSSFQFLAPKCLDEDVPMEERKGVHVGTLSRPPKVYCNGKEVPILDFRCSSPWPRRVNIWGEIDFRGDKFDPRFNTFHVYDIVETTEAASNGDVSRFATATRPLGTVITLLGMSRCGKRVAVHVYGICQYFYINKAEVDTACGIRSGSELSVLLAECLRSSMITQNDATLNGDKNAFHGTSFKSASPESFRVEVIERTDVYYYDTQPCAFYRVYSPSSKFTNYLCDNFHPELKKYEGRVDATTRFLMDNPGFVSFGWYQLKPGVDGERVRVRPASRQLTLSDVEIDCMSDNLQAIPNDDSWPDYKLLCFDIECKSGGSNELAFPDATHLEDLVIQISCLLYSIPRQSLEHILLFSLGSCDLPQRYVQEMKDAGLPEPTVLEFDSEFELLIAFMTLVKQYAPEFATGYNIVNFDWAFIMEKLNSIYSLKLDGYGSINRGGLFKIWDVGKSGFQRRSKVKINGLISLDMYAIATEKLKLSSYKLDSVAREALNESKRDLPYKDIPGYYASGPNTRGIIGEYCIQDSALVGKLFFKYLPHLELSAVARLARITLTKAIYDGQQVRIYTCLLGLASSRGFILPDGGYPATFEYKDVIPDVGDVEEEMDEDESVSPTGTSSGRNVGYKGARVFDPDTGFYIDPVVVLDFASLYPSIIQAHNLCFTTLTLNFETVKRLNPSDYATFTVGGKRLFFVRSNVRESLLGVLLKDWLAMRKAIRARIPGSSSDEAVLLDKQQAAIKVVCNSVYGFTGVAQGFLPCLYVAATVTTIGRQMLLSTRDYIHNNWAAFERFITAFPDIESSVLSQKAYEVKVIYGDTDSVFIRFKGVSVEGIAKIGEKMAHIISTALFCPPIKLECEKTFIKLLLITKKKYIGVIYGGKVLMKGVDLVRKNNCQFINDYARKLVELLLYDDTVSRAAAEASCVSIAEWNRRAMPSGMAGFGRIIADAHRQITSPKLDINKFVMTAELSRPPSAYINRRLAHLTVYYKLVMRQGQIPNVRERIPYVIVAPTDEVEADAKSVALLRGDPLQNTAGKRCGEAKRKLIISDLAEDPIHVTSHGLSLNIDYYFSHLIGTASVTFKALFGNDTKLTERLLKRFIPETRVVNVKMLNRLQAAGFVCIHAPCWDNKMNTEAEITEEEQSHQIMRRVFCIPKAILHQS

In the case of `Cn1nc(C(=O)NCc2ccc(Cl)cc2)c2c1CCN(C[C@H]1COC(=O)N1)CC2` [Compound 1], the half-maximal effective concentration (EC50) – broadly, the concentration at which the effect is half-maximal – in the assay on HSV2 amounted to 7.97 µM; in the assay on HCMV Strain AD169, 3.72 µM; in the assay on HSV-1 Strain F, 3.29 µM. In addition, the IC50 (as a rule, the concentration at which inhibition is half-maximal) in assay [1] came out at 0.26 µM; in assay [2], 0.802 µM; in the assay on VZV it was 1.96 µM.

For the molecule `Cn1nc(C(=O)NCc2ccc(Cl)cc2)c2c1CCN(C[C@H]1CCC(=O)N1)CC2` [Compound 2], the half-maximal effective concentration (EC50) in the assay on HSV2 amounted to 5.68 µM; with HCMV Strain AD169, 8.68 µM; in the assay with HSV-1 Strain F, 3.27 µM. Also, the IC50 was 0.251 µM in assay [1], 0.762 µM in assay [2] and 2.99 µM with VZV.

Regarding `Cc1nnn(C)c1CN1CCc2c(C(=O)NCc3ccc(Cl)cc3)nn(C)c2CC1` [Compound 3], the values for the EC50 in the assay on HSV2, with HCMV Strain AD169 and with HSV-1 Strain F were 7.82 µM, 12.4 µM and 4.58 µM, respectively. Further, the IC50 was 0.373 µM in assay [1], 0.805 µM in assay [2] and 1.44 µM with VZV.

The values above are taken from patent US12552802B2, “Fused [7,5] bicyclic pyrazole derivatives and methods of use thereof for the treatment of herpesviruses” (Merck Sharp & Dohme LLC, priority 2020, dated 2026).
